# Earlier results as cited in patent publication EP2502493B1, “Novel alpha-galactosidases” (Velico Medical, Inc., priority 2005, dated 2007).
# System: α-galactosidase from the marine bacterium Pseudoalteromonas spp. (KMM 701)
# Settings: isolated enzyme preparation, purified to 9.8U/mg; monosaccharide substrate pNP-Gal; read-out: apparent Km for pNP-Gal
smiles,measurement,value
"O=[N+]([O-])c1ccc(O[C@H]2O[C@H](CO)[C@H](O)[C@H](O)[C@H]2O)cc1 [pNP-Gal, p-nitrophenyl α-D-Gal]",Km,290 µM
